# Measured values taken from patent US12612416B2, “Modulators of cystic fibrosis transmembrane conductance regulator” (VERTEX PHARMACEUTICALS INCORPORATED, priority 2020, dated 2026).
# Where two headings read alike, the source gives them in different places.
# Tests used:
# [1] = 13-membered ring
# [2] = biological target: T1, CFTR-mediated chloride transport in human intestinal epithelial enteroid cells (Homo sapiens, UniProt P13569); assay: Membrane potential dye, Enteroid Assay B; format: cell-based; settings: for Ent. B Max Activity: % of chloride transport of triple combination control: 1 μM (14S)-8-[3-(2-{Dispiro[2.0.2.1]heptan-7-yl}ethoxy)-1H-pyrazol-1-yl]-12,12-dimethyl-...-2,2,4-trione, 3 μM tezacaftor, 300 nM acute ivacaftor; for EC50: enteroid cells, 18-24 hours incubation, acute 10 μM forskolin and 300 nM ivacaftor, read-out: Ent. B EC50
# Experimental: (§1) Base medium (ADF+++) consisted of Advanced DMEM/Ham's F12, 2 mM Glutamax, 10 mM HEPES, […] penicillin/streptomycin.
# (§2) Intestinal enteroid maintenance medium (IEMM) consisted of ADF+++, 1×B27 supplement, 1×N2 supplement, 1.25 mM N-acetyl cysteine, 10 mM Nicotinamide, 50 ng/mL hEGF, 10 nM Gastrin, 1 μg/mL hR-spondin-1, 100 ng/mL hNoggin, TGF-b type 1 inhibitor A-83-01, 100 μg/mL Primocin, 10 μM P38 MAPK inhibitor SB202190.
# (§3) Bath 1 Buffer consisted of 1 mM MgCl2, 160 mM NaCl, 4.5 mM KCl, 10 mM HEPES, 10 mM Glucose, 2 mM CaCl2).
# (§4) Chloride Free Buffer consisted of 1 mM Magnesium Gluconate, 2 mM Calcium Gluconate, 4.5 mM Potassium Gluconate, 160 mM Sodium Gluconate, 10 mM HEPES, 10 mM Glucose.
# (§5) BathI Dye Solution consisted of Bath 1 Buffer, 0.04% Pluronic F127, 20 μM Methyl Oxonol, 30 μM CaCCinh-A01, 30 μM Chicago Sky Blue.
# (§6) Chloride Free Dye Solution consisted of Chloride Free Buffer, 0.04% Pluronic F127, 20 μM Methyl Oxonol, 30 μM CaCCinh-A01, 30 μM Chicago Sky Blue.
# (§7) Chloride Free Dye Stimulation Solution consisted of Chloride Free Dye Solution, 10 μM forskolin, 100 μM IBMX, and 300 nM Compound III.
# (§8) Human intestinal epithelial enteroid cells were obtained from the Hubrecht Institute for Developmental Biology and Stem Cell Research, Utrecht, The Netherlands and expanded in T-Flasks as previously described (Dekkers J F, Wiegerinck C L, de Jonge H R, Bronsveld I, Janssens H M, de Winter-de Groot K M, Brandsma A M, de Jong N W M, Bijvelds M J C, Scholte B J, Nieuwenhuis E E S, van den Brink S, Clevers H, van der Ent C K, Middendorp S and M Beekman J M. A functional CFTR assay using primary cystic fibrosis intestinal organoids. Nat Med. 2013 July; 19(7):939-45.).
# (§9) Cells were recovered in cell recovery solution, collected by centrifugation at 650 rpm for 5 minutes at 4° C., resuspended in TrypLE and incubated for 5 minutes at 37° C. Cells were then collected by centrifugation at 650 rpm for 5 minutes at 4° C. and resuspended in IEMM containing 10 μM ROCK inhibitor (RI). The cell suspension was passed through a 40 μm cell strainer and resuspended at 1×10^6 cells/mL in IEMM containing 10 μM RI. Cells were seeded at 5000 cells/well into multi-well plates and incubated for overnight at 37° C., 95% humidity and 5% CO2 prior to assay.
# (§10) Enteroid cells were incubated with test compound in IEMM for 18-24 hours at 37° C., 95% humidity, and 5% C02. […] Briefly, cells were washed 5 times in Bath 1 Buffer. Bath 1 Dye Solution was added and the cells were incubated for 25 minutes at room temperature. Following dye incubation, cells were washed 3 times in Chloride Free Dye Solution. Chloride transport was initiated by addition of Chloride Free Dye Stimulation Solution and the fluorescence signal was read for 15 minutes. […] Chloride transport was then expressed as a percentage of the chloride transport following treatment with 1 μM (14S)-8-[3-(2-{Dispiro[2.0.2.1]heptan-7-yl}ethoxy)-1H-pyrazol-1-yl]-12,12-dimethyl-2λ^6-thia-3,9,11,18,23-pentaazatetracyclo[17.3.1.111,14.05,10]tetracosa-1(22),5,7,9,19(23),20-hexaene-2,2,4-trione, 3 μM (R)-1-(2,2-difluorobenzo[d][1,3]dioxol-5-yl)-N-(1-(2,3-dihydroxypropyl)-6-fluoro-2-(1-hydroxy-2-methylpropan-2-yl)-1H-indol-5-yl)cyclopropanecarboxamide and 300 nM acute N-[2,4-bis(1,1-dimethylethyl)-5-hydroxyphenyl]-1,4-dihydro-4-oxoquinoline-3-carboxamide triple combination control (% Activity).
# [3] = biological target: T1, CFTR-mediated chloride transport in human intestinal epithelial enteroid cells; assay: Membrane potential dye, Enteroid Assay A; format: cell-based; settings: for Ent. A Max Activity: % of chloride transport of triple combination control: 3 μM (S)-N-((6-aminopyridin-2-yl)sulfonyl)-6-(3-fluoro-5-isobutoxyphenyl)-2-(2,2,4-trimethylpyrrolidin-1-yl)nicotinamide, 3 μM tezacaftor, 300 nM acute ivacaftor; for EC50: enteroid cells, 18-24 hours incubation, acute 10 μM forskolin and 300 nM ivacaftor, read-out: Ent. A EC50
# Experimental: as §1, §2, §3, §4, §5, §6, §7, §8, §9
# as §10, with “95% humidity” for “95% humidity,”, “was added,” for “was added”, “with 3” for “with 1”, “μM (S)—N-((6-aminopyridin-2-yl)sulfonyl)-6-(3-fluoro-5-isobutoxyphenyl)-2-(2,2,4-trimethylpyrrolidin-1-yl)nicotinamide,” for “μM (14S)-8-[3-(2-{Dispiro[2.0.2.1]heptan-7-yl}ethoxy)-1H-pyrazol-1-yl]-12,12-dimethyl-2λ^6-thia-3,9,11,18,23-pentaazatetracyclo[17.3.1.111,14.05,10]tetracosa-1(22),5,7,9,19(23),20-hexaene-2,2,4-trione,”
# T1 sequence (P13569 with tags, fused parts or gaps DEL508-508): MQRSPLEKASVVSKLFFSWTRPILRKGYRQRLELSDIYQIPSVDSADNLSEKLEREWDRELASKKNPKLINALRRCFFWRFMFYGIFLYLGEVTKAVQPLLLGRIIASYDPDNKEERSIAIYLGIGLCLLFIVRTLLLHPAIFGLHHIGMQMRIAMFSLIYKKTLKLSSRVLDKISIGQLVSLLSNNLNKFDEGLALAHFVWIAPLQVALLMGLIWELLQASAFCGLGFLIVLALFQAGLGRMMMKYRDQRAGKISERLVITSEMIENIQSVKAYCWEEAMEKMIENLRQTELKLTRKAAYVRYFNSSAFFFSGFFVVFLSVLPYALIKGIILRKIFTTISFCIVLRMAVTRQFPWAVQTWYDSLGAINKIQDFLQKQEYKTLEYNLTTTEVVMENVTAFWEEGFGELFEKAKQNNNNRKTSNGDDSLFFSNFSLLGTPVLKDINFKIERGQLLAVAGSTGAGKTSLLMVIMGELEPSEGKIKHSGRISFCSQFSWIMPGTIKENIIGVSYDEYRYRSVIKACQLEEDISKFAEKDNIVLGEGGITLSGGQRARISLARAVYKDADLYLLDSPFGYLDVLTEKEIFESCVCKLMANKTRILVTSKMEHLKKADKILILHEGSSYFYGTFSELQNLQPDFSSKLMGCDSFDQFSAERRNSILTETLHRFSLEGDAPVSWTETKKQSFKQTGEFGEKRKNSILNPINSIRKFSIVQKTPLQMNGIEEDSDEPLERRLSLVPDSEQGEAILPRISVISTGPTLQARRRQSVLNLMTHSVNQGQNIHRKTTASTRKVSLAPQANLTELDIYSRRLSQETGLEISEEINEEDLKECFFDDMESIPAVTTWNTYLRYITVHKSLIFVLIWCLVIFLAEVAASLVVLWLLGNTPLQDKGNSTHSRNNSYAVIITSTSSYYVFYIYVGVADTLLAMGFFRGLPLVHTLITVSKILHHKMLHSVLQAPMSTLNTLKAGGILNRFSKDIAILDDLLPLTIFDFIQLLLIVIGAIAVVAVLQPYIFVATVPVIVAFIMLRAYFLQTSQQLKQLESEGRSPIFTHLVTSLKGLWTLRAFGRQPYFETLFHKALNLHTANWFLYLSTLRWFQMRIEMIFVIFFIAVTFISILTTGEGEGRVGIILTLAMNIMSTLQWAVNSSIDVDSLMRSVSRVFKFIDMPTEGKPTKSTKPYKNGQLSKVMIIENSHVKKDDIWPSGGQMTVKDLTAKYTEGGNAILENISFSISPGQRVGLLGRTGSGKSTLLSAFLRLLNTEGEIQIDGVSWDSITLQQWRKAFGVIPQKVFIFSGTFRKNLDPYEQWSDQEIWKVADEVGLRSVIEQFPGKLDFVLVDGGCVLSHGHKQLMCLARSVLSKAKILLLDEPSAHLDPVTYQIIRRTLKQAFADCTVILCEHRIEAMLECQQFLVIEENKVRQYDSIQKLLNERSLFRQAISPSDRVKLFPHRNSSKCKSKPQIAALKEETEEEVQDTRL
structure (smiles),measurement,setting,value
"Cc1cccc(C)c1-c1cc2nc(n1)NS(=O)(=O)c1cccc(c1)C(=O)N(C1CC3(CC3)C1)[C@H](CC(C)C)CC2 [Compound 6, (11S)-6-(2,6-Dimethylphenyl)-11-isobutyl-2,2-dioxo-12-spiro[2.3]hexan-5-yl-2 λ6-thia-3,5,12,19-tetrazatricyclo[12.3.1.14,8]nonadeca-1(18),4(19),5,7,14,16-hexaen-13-one]","ring closure, yield after HPLC","[1]; from Cc1cccc(C)c1-c1cc(CC[C@@H](CC(C)C)NC2CC3(CC3)C2)nc(NS(=O)(=O)c2cccc(C(=O)O)c2)n1, amide bond, HATU/DIEA, NMP, 126.6 mM, 25.0 °C, 2.0 h",50%
same,Ent. B Max Activity,[2],+++ (+++ is >60%)
same,EC50,[2],< 1000 nM
"Cc1cccc(C)c1-c1cc2nc(n1)NS(=O)(=O)c1cccc(c1)C(=O)N(C1CC3(CC3)C1)[C@H](CC1(C(F)(F)F)CC1)CC2 [Compound 7, (11S)-6-(2,6-Dimethylphenyl)-2,2-dioxo-12-spiro[2.3]hexan-5-yl-11-[[1-(trifluoromethyl)cyclopropyl]methyl]-2 λ6-thia-3,5,12,19-tetrazatricyclo [12.3.1.14,8]nonadeca-1(18),4(19),5,7,14,16-hexaen-13-one]","ring closure, yield after HPLC","[1]; from Cc1cccc(C)c1-c1cc(CC[C@@H](CC2(C(F)(F)F)CC2)NC2CC3(CC3)C2)nc(NS(=O)(=O)c2cccc(C(=O)O)c2)n1, amide bond, HATU/DIEA, NMP, 26.8 mM, 25.0 °C, 16.0 h",22%
same,Ent. B Max Activity,[2],+++ (+++ is >60%)
same,EC50,[2],< 1000 nM
"Cc1cccc(C)c1-c1cc2nc(n1)NS(=O)(=O)c1cccc(c1)C(=O)N(C1CC3(CC3)C1)CCC2C (centres unmarked) [Compound 11, 6-(2,6-dimethylphenyl)-9-methyl-2,2-dioxo-12-spiro[2.3]hexan-5-yl-2λ^6-thia-3,5,12,19-tetrazatricyclo[12.3.1.14,8]nonadeca-1(18),4(19),5,7,14,16-hexaen-13-one]","ring closure, yield after HPLC","[1]; from Cc1cccc(C)c1-c1cc(C(C)CCNC2CC3(CC3)C2)nc(NS(=O)(=O)c2cccc(C(=O)O)c2)n1, amide bond, HATU/DIEA, NMP, 20.1 mM, 25.0 °C, 16.0 h",86%
same,Ent. B Max Activity,[2],+++ (+++ is >60%)
same,EC50,[2],1000 to 3000 nM
"Cc1cccc(C)c1-c1nc2nc(c1C)NCCOC(=O)c1cccc(c1)S(=O)(=O)N2 [Compound 24, 6-(2,6-dimethylphenyl)-7-methyl-12-oxa-2 λ6-thia-3,5,9,19-tetraazatricyclo[12.3.1.14,8]nonadeca-1(18),4,6,8(19),14,16-hexaene-2,2,13-trione]","ring closure, yield after HPLC","[1]; from Cc1cccc(C)c1-c1nc(NS(=O)(=O)c2cccc(C(=O)O)c2)nc(OCCN)c1C, ester bond, HATU/DIEA, DMF, 50.7 mM, 25.0 °C",23%
same,Ent. B Max Activity,[2],+ (+ is <30%)
"Cc1cccc(C)c1-c1cc2nc(n1)NS(=O)(=O)c1cccc(c1)C(=O)OCC(CCC1(C(F)(F)F)CC1)N2CCC1CCOCC1 (centres unmarked) [Compound 26, 6-(2,6-dimethylphenyl)-2,2-dioxo-9-(2-tetrahydropyran-4-ylethyl)-10-[2-[1-(trifluoromethyl)cyclopropyl]ethyl]-12-oxa-2λ6-thia-3,5,9,19-tetrazatricyclo[12.3.1.14,8]nonadeca-1(18),4(19),5,7,14,16-hexaen-13-one]",Ent. A Max Activity,[3],+++ (+++ is >60%)
same,EC50,[3],1000 to 3000 nM
Cc1cccc(C)c1-c1cc2nc(n1)NS(=O)(=O)c1ccccc1C(=O)O[C@H](c1ccc(C(C)(C)C)cc1)[C@@H](C)N2 [Compound 27],Ent. A Max Activity,[3],+ (+ is <30%)
Cc1cccc(C)c1-c1cc2nc(n1)NS(=O)(=O)c1cccc(c1)C(=O)OCC[C@H](c1ccccc1)N2 [Compound 28],Ent. A Max Activity,[3],++ (++ is 30-60%)
same,EC50,[3],1000 to 3000 nM
Cc1cccc(C)c1-c1cc2nc(n1)NS(=O)(=O)c1cccc(c1)C(=O)OCC(CCC1(C(F)(F)F)CC1)N2CCC(C)C (centres unmarked) [Compound 30],Ent. A Max Activity,[3],+ (+ is <30%)
Cc1cccc(C)c1-c1cc2nc(n1)NS(=O)(=O)c1cccc(c1)C(=O)OCC(CCC1(C(F)(F)F)CC1)N2Cc1ccccc1 (centres unmarked) [Compound 31],Ent. A Max Activity,[3],++ (++ is 30-60%)
same,EC50,[3],1000 to 3000 nM
Cc1cccc(C)c1-c1cc2nc(n1)NS(=O)(=O)c1cccc(c1)C(=O)OCC[C@@H](c1ccccc1)N2 [Compound 33],Ent. A Max Activity,[3],+++ (+++ is >60%)
same,EC50,[3],1000 to 3000 nM
Cc1cccc(C)c1-c1cc2nc(n1)NS(=O)(=O)c1cccc(c1)C(=O)OCC(C)(C)CN2 [Compound 34],Ent. A Max Activity,[3],+ (+ is <30%)
Cc1cccc(C)c1-c1cc2nc(n1)NS(=O)(=O)c1cccc(c1)C(=O)O[C@@H](C)[C@@H](CC(C)C)N2 [Compound 36],Ent. A Max Activity,[3],+ (+ is <30%)
"Cc1cccc(C)c1-c1cc2nc(n1)NS(=O)(=O)c1cccc(c1)C(=O)NC(CC(C)C)CN2 (centres unmarked) [Compound 37, 6-(2,6-Dimethylphenyl)-11-isobutyl-2,2-dioxo-2 λ6-thia-3,5,9,12,19-pentazatricyclo[12.3.1.14,8]nonadeca-1(18),4(19),5,7,14,16-hexaen-13-one]","ring closure, yield after HPLC","[1]; from Cc1cccc(C)c1-c1cc(NCC(N)CC(C)C)nc(NS(=O)(=O)c2cccc(C(=O)O)c2)n1, amide bond, HATU/Et3N, DMF, 50.6 mM, 0.5 h",67%
same,Ent. A Max Activity,[3],+ (+ is <30%)
"Cc1cccc(C)c1-c1cc2nc(n1)NS(=O)(=O)c1cccc(c1)C(=O)N[C@H](C)CN2Cc1ccccc1 [Compound 38, (11R)-9-benzyl-6-(2,6-dimethylphenyl)-11-methyl-2,2-dioxo-2λ6-thia-3,5,9,12,19-pentazatricyclo[12.3.1.14,8]nonadeca-1(18),4(19),5,7,14,16-hexaen-13-one]","ring closure, yield after HPLC","[1]; from Cc1cccc(C)c1-c1cc(N(Cc2ccccc2)C[C@@H](C)N)nc(NS(=O)(=O)c2cccc(C(=O)O)c2)n1, amide bond, HATU/Et3N, DMF, 44.7 mM, 25.0 °C, 16.0 h",23%
same,Ent. A Max Activity,[3],+ (+ is <30%)
"Cc1cccc(C)c1-c1cc2nc(n1)NS(=O)(=O)c1cccc(c1)C(=O)NCCN2CC(C)C [Compound 39, 6-(2,6-Dimethylphenyl)-9-isobutyl-2,2-dioxo-2 λ6-thia-3,5,9,12,19-pentazatricyclo[12.3.1.14,8]nonadeca-1(18),4(19),5,7,14,16-hexaen-13-one]","ring closure, yield after HPLC","[1]; from Cc1cccc(C)c1-c1cc(N(CCN)CC(C)C)nc(NS(=O)(=O)c2cccc(C(=O)O)c2)n1, amide bond, HATU/Et3N, DMF, 25.3 mM, 25.0 °C, 0.5 h",35%
same,Ent. A Max Activity,[3],+ (+ is <30%)
